Data taken from ChEMBL document CHEMBL1201861, “Genomics of Drug Sensitity in Cancer screening data, Wellcome Trust Sanger Institute”.

Tests used:
Test in all cases: cells
D-247MG = type: functional, cell-based; conditions: Homo sapiens
Description: SANGER: Inhibition of human D-247MG cell growth in a cell viability assay.

D-502MG = type: functional, cell-based, Homo sapiens; conditions: Homo sapiens, D-502MG
Description: SANGER: Inhibition of human D-502MG cell growth in a cell viability assay.

DOHH-2 = type: functional, cell-based, Homo sapiens; conditions: Homo sapiens, DOHH-2
Description: SANGER: Inhibition of human DOHH-2 cell growth in a cell viability assay.

DOK = type: functional, cell-based; conditions: Homo sapiens
Description: SANGER: Inhibition of human DOK cell growth in a cell viability assay.

DU-4475 = type: functional, cell-based, Homo sapiens; conditions: Homo sapiens, DU-4475
Description: SANGER: Inhibition of human DU-4475 cell growth in a cell viability assay.

EM-2 = type: functional, cell-based, Homo sapiens; conditions: Homo sapiens, EM-2
Description: SANGER: Inhibition of human EM-2 cell growth in a cell viability assay.

ES7 = type: functional, cell-based, Homo sapiens; conditions: Homo sapiens, ES7
Description: SANGER: Inhibition of human ES7 cell growth in a cell viability assay.

EW-11 = type: functional, cell-based, Homo sapiens; conditions: Homo sapiens, EW-11
Description: SANGER: Inhibition of human EW-11 cell growth in a cell viability assay.

EW-16 = type: functional, cell-based, Homo sapiens; conditions: Homo sapiens, EW-16
Description: SANGER: Inhibition of human EW-16 cell growth in a cell viability assay.

EW-18 = type: functional, cell-based, Homo sapiens; conditions: Homo sapiens, EW-18; read-out: IC50
Description: SANGER: Inhibition of human EW-18 cell growth in a cell viability assay.

GAK = type: functional, cell-based, Homo sapiens; conditions: Homo sapiens, GAK
Description: SANGER: Inhibition of human GAK cell growth in a cell viability assay.

HDLM-2 = type: functional, cell-based, Homo sapiens; conditions: Homo sapiens, HDLM-2
Description: SANGER: Inhibition of human HDLM-2 cell growth in a cell viability assay.

HEL = type: functional, cell-based, Homo sapiens; conditions: Homo sapiens, HEL
Description: SANGER: Inhibition of human HEL cell growth in a cell viability assay.

HT = type: functional, cell-based, Homo sapiens; conditions: Homo sapiens, HT
Description: SANGER: Inhibition of human HT cell growth in a cell viability assay.

IST-MEL1 = type: functional, cell-based, Homo sapiens; conditions: Homo sapiens, IST-MEL1
Description: SANGER: Inhibition of human IST-MEL1 cell growth in a cell viability assay.

IST-SL1 = type: functional, cell-based, Homo sapiens; conditions: Homo sapiens, IST-SL1
Description: SANGER: Inhibition of human IST-SL1 cell growth in a cell viability assay.

KGN = type: functional, cell-based, Homo sapiens; conditions: Homo sapiens, KGN
Description: SANGER: Inhibition of human KGN cell growth in a cell viability assay.

KINGS-1 = type: functional, cell-based, Homo sapiens; conditions: Homo sapiens, KINGS-1
Description: SANGER: Inhibition of human KINGS-1 cell growth in a cell viability assay.

KLE = type: functional, cell-based; conditions: Homo sapiens
Description: SANGER: Inhibition of human KLE cell growth in a cell viability assay.

KY821 = type: functional, cell-based, Homo sapiens; conditions: Homo sapiens, KY821
Description: SANGER: Inhibition of human KY821 cell growth in a cell viability assay.

LAN-6 = type: functional, cell-based, Homo sapiens; conditions: Homo sapiens, LAN-6
Description: SANGER: Inhibition of human LAN-6 cell growth in a cell viability assay.

LC-2-ad = type: functional, cell-based, Homo sapiens; conditions: Homo sapiens, LC-2-ad
Description: SANGER: Inhibition of human LC-2-ad cell growth in a cell viability assay.

LS-513 = type: functional, cell-based, Homo sapiens; conditions: Homo sapiens, LS-513
Description: SANGER: Inhibition of human LS-513 cell growth in a cell viability assay.

MMAC-SF = type: functional, cell-based; conditions: Homo sapiens
Description: SANGER: Inhibition of human MMAC-SF cell growth in a cell viability assay.

MPP-89 = type: functional, cell-based, Homo sapiens; conditions: Homo sapiens, MPP-89
Description: SANGER: Inhibition of human MPP-89 cell growth in a cell viability assay.

MSTO-211H = type: functional, cell-based, Homo sapiens; conditions: Homo sapiens, MSTO-211H
Description: SANGER: Inhibition of human MSTO-211H cell growth in a cell viability assay.

NB5 = type: functional, cell-based, Homo sapiens; conditions: Homo sapiens, NB5
Description: SANGER: Inhibition of human NB5 cell growth in a cell viability assay.

NCI-H1092 = type: functional, cell-based, Homo sapiens; conditions: Homo sapiens, NCI-H1092
Description: SANGER: Inhibition of human NCI-H1092 cell growth in a cell viability assay.

NCI-H1395 = type: functional, cell-based, Homo sapiens; conditions: Homo sapiens, NCI-H1395
Description: SANGER: Inhibition of human NCI-H1395 cell growth in a cell viability assay.

NCI-H1581 = type: functional, cell-based, Homo sapiens; conditions: Homo sapiens, NCI-H1581
Description: SANGER: Inhibition of human NCI-H1581 cell growth in a cell viability assay.

NCI-H1623 = type: functional, cell-based; conditions: Homo sapiens
Description: SANGER: Inhibition of human NCI-H1623 cell growth in a cell viability assay.

NCI-H1770 = type: functional, cell-based, Homo sapiens; conditions: Homo sapiens, NCI-H1770
Description: SANGER: Inhibition of human NCI-H1770 cell growth in a cell viability assay.

NCI-H1838 = type: functional, cell-based, Homo sapiens; conditions: Homo sapiens, NCI-H1838
Description: SANGER: Inhibition of human NCI-H1838 cell growth in a cell viability assay.

NCI-H226 = type: functional, cell-based, Homo sapiens; conditions: Homo sapiens, NCI-H226
Description: SANGER: Inhibition of human NCI-H226 cell growth in a cell viability assay.

NCI-H69 = type: functional, cell-based, Homo sapiens; conditions: Homo sapiens, NCI-H69
Description: SANGER: Inhibition of human NCI-H69 cell growth in a cell viability assay.

OCI-AML2 = type: functional, cell-based, Homo sapiens; conditions: Homo sapiens, OCI-AML2
Description: SANGER: Inhibition of human OCI-AML2 cell growth in a cell viability assay.

OCUB-M = type: functional, cell-based; conditions: Homo sapiens
Description: SANGER: Inhibition of human OCUB-M cell growth in a cell viability assay.

QIMR-WIL = type: functional, cell-based, Homo sapiens; conditions: Homo sapiens, QIMR-WIL
Description: SANGER: Inhibition of human QIMR-WIL cell growth in a cell viability assay.

SK-UT-1 = type: functional, cell-based, Homo sapiens; conditions: Homo sapiens, SK-UT-1
Description: SANGER: Inhibition of human SK-UT-1 cell growth in a cell viability assay.

SW872 = type: functional, cell-based, Homo sapiens; conditions: Homo sapiens, SW872
Description: SANGER: Inhibition of human SW872 cell growth in a cell viability assay.

SW982 = type: functional, cell-based; conditions: Homo sapiens
Description: SANGER: Inhibition of human SW982 cell growth in a cell viability assay.

A388 = type: functional, cell-based; conditions: Homo sapiens
Description: SANGER: Inhibition of human A388 cell growth in a cell viability assay.

A704 = type: functional, cell-based; conditions: Homo sapiens
Description: SANGER: Inhibition of human A704 cell growth in a cell viability assay.

ACN = type: functional, cell-based, Homo sapiens; conditions: Homo sapiens, ACN
Description: SANGER: Inhibition of human ACN cell growth in a cell viability assay.

BB30-HNC = type: functional, cell-based, Homo sapiens; conditions: Homo sapiens, BB30-HNC
Description: SANGER: Inhibition of human BB30-HNC cell growth in a cell viability assay.

BV-173 = type: functional, cell-based, Homo sapiens; conditions: Homo sapiens, BV-173
Description: SANGER: Inhibition of human BV-173 cell growth in a cell viability assay.

TE-5 = type: functional, cell-based, Homo sapiens; conditions: Homo sapiens, TE-5
Description: SANGER: Inhibition of human TE-5 cell growth in a cell viability assay.

TE-8 = type: functional, cell-based, Homo sapiens; conditions: Homo sapiens, TE-8
Description: SANGER: Inhibition of human TE-8 cell growth in a cell viability assay.

TE-9 = type: functional, cell-based, Homo sapiens; conditions: Homo sapiens, TE-9
Description: SANGER: Inhibition of human TE-9 cell growth in a cell viability assay.

U-118-MG = type: functional, cell-based; conditions: Homo sapiens
Description: SANGER: Inhibition of human U-118-MG cell growth in a cell viability assay.

no-10 = type: functional, cell-based, Homo sapiens; conditions: Homo sapiens
Description: SANGER: Inhibition of human no-10 cell growth in a cell viability assay.

no-11 = type: functional, cell-based, Homo sapiens; conditions: Homo sapiens
Description: SANGER: Inhibition of human no-11 cell growth in a cell viability assay.

## CN(NC(=O)CC(=O)NN(C)C(=S)c1ccccc1)C(=S)c1ccccc1 [ELESCLOMOL]
D-247MG
  IC50: 24.7 nM
D-502MG
  IC50: 25.8 nM
DOHH-2
  IC50: > 200 nM
DOK
  IC50: 17.9 nM
DU-4475
  IC50: 112 nM
EM-2
  IC50: > 200 nM
ES7
  IC50: 3.59 nM
EW-11
  IC50: 4.9 nM
EW-16
  IC50: 1.61 nM
EW-18
  IC50: > 200 nM
GAK
  IC50: > 200 nM
HDLM-2
  IC50: > 200 nM
HEL
  IC50: 7.08 nM
HT
  IC50: > 200 nM
IST-MEL1
  IC50: 11.3 nM
IST-SL1
  IC50: 52.3 nM
KGN
  IC50: > 200 nM
KINGS-1
  IC50: 177 nM
KLE
  IC50: > 200 nM
KY821
  IC50: > 200 nM
LAN-6
  IC50: 54.6 nM
LC-2-ad
  IC50: 27.8 nM
LS-513
  IC50: 82 nM
MMAC-SF
  IC50: 84.3 nM
MPP-89
  IC50: 9.13 nM
MSTO-211H
  IC50: > 200 nM
NB5
  IC50: 30.7 nM
NCI-H1092
  IC50: 90.1 nM
NCI-H1395
  IC50: 13.6 nM
NCI-H1581
  IC50: 24.6 nM
NCI-H1623
  IC50: 179 nM
NCI-H1770
  IC50: > 200 nM
NCI-H1838
  IC50: 184 nM
NCI-H226
  IC50: 131 nM
NCI-H69
  IC50: > 200 nM
OCI-AML2
  IC50: 136 nM
OCUB-M
  IC50: 195 nM
QIMR-WIL
  IC50: 32.9 nM
SK-UT-1
  IC50: 14.1 nM
SW872
  IC50: > 200 nM
SW982
  IC50: 7.44 nM
A388
  IC50: > 200 nM
A704
  IC50: 27.5 nM
ACN
  IC50: 11.7 nM
BB30-HNC
  IC50: 35.3 nM
BV-173
  IC50: 5.39 nM
TE-5
  IC50: 15 nM
TE-8
  IC50: 5.41 nM
TE-9
  IC50: 117 nM
U-118-MG
  IC50: > 200 nM
no-10
  IC50: > 200 nM
no-11
  IC50: 23.3 nM

## Cc1ccc(C(=O)Nc2ccc(CN3CCN(C)CC3)c(C(F)(F)F)c2)cc1C#Cc1cnc2cccnn12 [PONATINIB]
D-247MG
  IC50: […]
D-502MG
  IC50: […]
DOHH-2
  IC50: 48 nM
DOK
  IC50: […]
DU-4475
  IC50: 495 nM
ES7
  IC50: […]
EW-11
  IC50: […]
EW-16
  IC50: […]
EW-18
  IC50: […]
GAK
  IC50: […]
HDLM-2
  IC50: […]
HEL
  IC50: […]
HT
  IC50: […]
IST-MEL1
  IC50: […]
IST-SL1
  IC50: […]
KGN
  IC50: […]
KINGS-1
  IC50: […]
KLE
  IC50: […]
KY821
  IC50: […]
LAN-6
  IC50: […]
LC-2-ad
  IC50: 243 nM
LS-513
  IC50: […]
MMAC-SF
  IC50: […]
MPP-89
  IC50: 169 nM
MSTO-211H
  IC50: […]
NB5
  IC50: […]
NCI-H1092
  IC50: […]
NCI-H1395
  IC50: […]
NCI-H1581
  IC50: […]
NCI-H1623
  IC50: […]
NCI-H1770
  IC50: […]
NCI-H1838
  IC50: […]
NCI-H226
  IC50: […]
NCI-H69
  IC50: […]
OCI-AML2
  IC50: […]
OCUB-M
  IC50: […]
QIMR-WIL
  IC50: 334 nM
SK-UT-1
  IC50: […]
SW872
  IC50: […]
SW982
  IC50: 300 nM
A388
  IC50: […]
A704
  IC50: […]
ACN
  IC50: 349 nM
BB30-HNC
  IC50: […]
BV-173
  IC50: […]
TE-5
  IC50: […]
TE-8
  IC50: […]
TE-9
  IC50: […]
U-118-MG
  IC50: […]
no-10
  IC50: […]
no-11
  IC50: […]
